Measured values as given in the NIST ThermoML archive (doi:10.1016/j.jct.2019.03.023).

Assay: molar heat capacity at constant volume
Conditions: Fluid (supercritical or subcritical phases), Vacuum adiabatic calorimetry

CC(C)O [propan-2-ol]
Conditions | molar heat capacity at constant volume [J/K/mol]
510.52 K, Mass density=293.3 kg/m3 | 192.91
510.52 K, Mass density=343.1 kg/m3 | 174.76
510.61 K, Mass density=281.9 kg/m3 | 198.13
510.61 K, Mass density=293.3 kg/m3 | 186.78
510.61 K, Mass density=343.1 kg/m3 | 182.21
510.7 K, Mass density=281.9 kg/m3 | 193.39
510.7 K, Mass density=343.1 kg/m3 | 185.93
510.79 K, Mass density=281.9 kg/m3 | 196.69
510.79 K, Mass density=343.1 kg/m3 | 177.04
510.89 K, Mass density=281.9 kg/m3 | 193.39
510.98 K, Mass density=281.9 kg/m3 | 188.88
511.07 K, Mass density=281.9 kg/m3 | 188.94
511.16 K, Mass density=281.9 kg/m3 | 193.51
511.26 K, Mass density=281.9 kg/m3 | 188.94
511.35 K, Mass density=281.9 kg/m3 | 192.78
511.44 K, Mass density=281.9 kg/m3 | 189
511.53 K, Mass density=281.9 kg/m3 | 191.7
515.15 K, Mass density=293.3 kg/m3 | 182.39
515.24 K, Mass density=293.3 kg/m3 | 178.06
515.33 K, Mass density=293.3 kg/m3 | 182.39
515.42 K, Mass density=293.3 kg/m3 | 173.67
515.51 K, Mass density=293.3 kg/m3 | 178.06
515.61 K, Mass density=293.3 kg/m3 | 173.73
515.7 K, Mass density=293.3 kg/m3 | 178.12
515.79 K, Mass density=293.3 kg/m3 | 185.39
515.88 K, Mass density=293.3 kg/m3 | 178.12
515.98 K, Mass density=234.3 kg/m3 | 168.75
515.98 K, Mass density=293.3 kg/m3 | 174.52
516.07 K, Mass density=234.3 kg/m3 | 174.22
516.16 K, Mass density=234.3 kg/m3 | 168.75
516.25 K, Mass density=234.3 kg/m3 | 163.28
516.34 K, Mass density=234.3 kg/m3 | 174.28
516.44 K, Mass density=234.3 kg/m3 | 163.88
516.53 K, Mass density=234.3 kg/m3 | 168.81
516.62 K, Mass density=234.3 kg/m3 | 168.87
516.71 K, Mass density=234.3 kg/m3 | 163.4
516.71 K, Mass density=281.9 kg/m3 | 181.31
516.81 K, Mass density=234.3 kg/m3 | 168.87
516.81 K, Mass density=281.9 kg/m3 | 181.31
516.9 K, Mass density=234.3 kg/m3 | 168.87
516.9 K, Mass density=281.9 kg/m3 | 176.74
516.99 K, Mass density=281.9 kg/m3 | 176.8
517.08 K, Mass density=281.9 kg/m3 | 185.87
517.18 K, Mass density=281.9 kg/m3 | 176.8
517.27 K, Mass density=281.9 kg/m3 | 181.19
517.54 K, Mass density=274 kg/m3 | 189.48
517.64 K, Mass density=274 kg/m3 | 184.79
517.73 K, Mass density=274 kg/m3 | 180.04
517.82 K, Mass density=274 kg/m3 | 183.77
517.91 K, Mass density=274 kg/m3 | 180.1
518 K, Mass density=274 kg/m3 | 187.14
518.07 K, Mass density=274 kg/m3 | 180.1
518.1 K, Mass density=274 kg/m3 | 183.35
518.28 K, Mass density=274 kg/m3 | 181.73
518.37 K, Mass density=274 kg/m3 | 182.81
518.47 K, Mass density=255.8 kg/m3 | 166.04
518.56 K, Mass density=255.8 kg/m3 | 167.12
518.65 K, Mass density=255.8 kg/m3 | 169.05
518.74 K, Mass density=255.8 kg/m3 | 166.34
518.83 K, Mass density=255.8 kg/m3 | 165.14
518.93 K, Mass density=255.8 kg/m3 | 167.97
519.02 K, Mass density=255.8 kg/m3 | 165.14
519.11 K, Mass density=255.8 kg/m3 | 170.19
519.2 K, Mass density=255.8 kg/m3 | 165.2
519.29 K, Mass density=255.8 kg/m3 | 166.64
519.39 K, Mass density=255.8 kg/m3 | 168.99
521.23 K, Mass density=293.3 kg/m3 | 170.43
521.32 K, Mass density=293.3 kg/m3 | 170.43
521.41 K, Mass density=293.3 kg/m3 | 170.43
521.5 K, Mass density=293.3 kg/m3 | 161.66
521.59 K, Mass density=293.3 kg/m3 | 174.88
521.68 K, Mass density=293.3 kg/m3 | 170.49
521.78 K, Mass density=293.3 kg/m3 | 166.34
521.87 K, Mass density=281.9 kg/m3 | 173.13
521.87 K, Mass density=293.3 kg/m3 | 169.71
521.96 K, Mass density=281.9 kg/m3 | 168.57
522.05 K, Mass density=281.9 kg/m3 | 173.19
522.14 K, Mass density=281.9 kg/m3 | 173.19
522.23 K, Mass density=281.9 kg/m3 | 173.19
522.33 K, Mass density=281.9 kg/m3 | 168.63
522.42 K, Mass density=281.9 kg/m3 | 171.63
522.51 K, Mass density=281.9 kg/m3 | 173.25
522.6 K, Mass density=281.9 kg/m3 | 168.69
524.07 K, Mass density=274 kg/m3 | 171.75
524.16 K, Mass density=274 kg/m3 | 171.75
524.25 K, Mass density=274 kg/m3 | 176.5
524.34 K, Mass density=274 kg/m3 | 176.5
524.43 K, Mass density=274 kg/m3 | 176.56
524.53 K, Mass density=274 kg/m3 | 171.81
524.62 K, Mass density=274 kg/m3 | 176.56
524.71 K, Mass density=274 kg/m3 | 167.12
524.8 K, Mass density=274 kg/m3 | 171.87
